Test system: MV4:11 human cancer cell lines
Test: Cellular viability / anti-proliferative activity (CellTiter-Glo)
Type: cell-based
Details: MV4-11, 120 h, MV-4-11 cells, 5 day protocol, mean of minimum two replicates, read-out: GI50 on cellular proliferation of MV4:11 human cancer cell lines
Outline: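 MV-4-11 cells in IMDM/10% FBS, 200 cells per well, exposed 5 days to 22 two-fold dilutions from 30 μM (0.3% DMSO final). Viability read by CellTiter-Glo luminescence; GI50 from sigmoidal dose-response, mean of at least two replicates.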

SMILES	GI50 [nM]
CCn1cc(-c2cc(Cn3ccnc3C)cc3c2OCCN([C@H]2CCOc4ccc(OC)cc42)C3=O)c(C(F)(F)F)n1 [Example 64, (S)-9-(1-ethyl-3-(trifluoromethyl)-1H-pyrazol-4-yl)-4-(6-methoxychroman-4-yl)-7-((2-methyl-1H-imidazol-1-yl)methyl)-3,4-dihydrobenzo[f][1,4]oxazepin-5(2H)-one]	39
Cn1cc(-c2cc(Cn3ccn(C)c3=N)cc3c(=O)n(-c4ccccc4-c4ccccc4)cnc23)c(C(F)(F)F)n1 [Example 24, 3-([1,1′-Biphenyl]-2-yl)-6-((2-imino-3-methyl-2,3-dihydro-1H-imidazol-1-yl)methyl)-8-(1-methyl-3-(trifluoromethyl)-1H-pyrazol-4-yl)quinazolin-4(3H)-one]	9010
CCOC(=O)c1cc(CC)cc2c(N3CCOc4c(cc(Cn5ccnc5)cc4-c4cn(C)nc4C(F)(F)F)C3=O)ccnc12 [Example 66, Ethyl 4-(7-((1H-imidazol-1-yl)methyl)-9-(1-methyl-3-(trifluoromethyl)-1H-pyrazol-4-yl)-5-oxo-2,3-dihydrobenzo[f][1,4]oxazepin-4(5H)-yl)-6-ethylquinoline-8-carboxylate]	772
CCc1cc(C(=O)NC)c2nccc(N3CCOc4c(cc(Cn5ccnc5)cc4-c4cn(C)nc4C(F)(F)F)C3=O)c2c1 [Example 72, 4-(7-((1H-imidazol-1-yl)methyl)-9-(1-methyl-3-(trifluoromethyl)-1H-pyrazol-4-yl)-5-oxo-2,3-dihydrobenzo[f][1,4]oxazepin-4(5H)-yl)-6-ethyl-N-methylquinoline-8-carboxamide]	494

— patent US12577227B2, “WDR5 inhibitors and modulators” (Vanderbilt University, priority 2019, dated 2026)
